Among the data in patent US10961198B2, “Farnesoid X receptor agonists and uses thereof” (Metacrine, Inc., priority 2017, dated 2021) are EC50 values, retold here.

Molecules are shown by their SMILES.

As a reminder, the EC50 is the concentration giving half of the maximal effect. Low values mean an effect from little substance, high ones a need for much substance.

In this assay the target is hFXR (Homo sapiens (Human), UniProt Q96RI1). Kind of assay: In Vitro FXR Assay (TK). It is filed as cell-based. As to conditions: CV-1 cells transfected with hFXR, hRXR, TK-ECRE-luc and pCMX-YFP; incubated 18 hrs; luminescence; maximum efficacy <25% of the Fexarmine control classified as '+'. On the procedure: Example B-1: In Vitro FXR Assay (TK)
hFXR, sequence (Q96RI1 whole entry): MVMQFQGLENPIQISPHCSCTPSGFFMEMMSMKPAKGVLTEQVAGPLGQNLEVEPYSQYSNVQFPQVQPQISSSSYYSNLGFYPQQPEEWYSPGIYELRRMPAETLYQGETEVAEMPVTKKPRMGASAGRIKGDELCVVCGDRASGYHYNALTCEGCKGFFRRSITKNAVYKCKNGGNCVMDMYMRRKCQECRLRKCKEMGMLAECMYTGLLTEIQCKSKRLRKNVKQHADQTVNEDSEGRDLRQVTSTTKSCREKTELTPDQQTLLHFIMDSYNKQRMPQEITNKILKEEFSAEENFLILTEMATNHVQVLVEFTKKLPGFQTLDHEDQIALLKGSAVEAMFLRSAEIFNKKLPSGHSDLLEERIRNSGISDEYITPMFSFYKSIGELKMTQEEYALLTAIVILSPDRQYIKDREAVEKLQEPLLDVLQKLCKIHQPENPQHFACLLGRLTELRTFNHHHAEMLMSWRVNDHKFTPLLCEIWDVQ
hFXR, sequence (P19793 whole entry partner): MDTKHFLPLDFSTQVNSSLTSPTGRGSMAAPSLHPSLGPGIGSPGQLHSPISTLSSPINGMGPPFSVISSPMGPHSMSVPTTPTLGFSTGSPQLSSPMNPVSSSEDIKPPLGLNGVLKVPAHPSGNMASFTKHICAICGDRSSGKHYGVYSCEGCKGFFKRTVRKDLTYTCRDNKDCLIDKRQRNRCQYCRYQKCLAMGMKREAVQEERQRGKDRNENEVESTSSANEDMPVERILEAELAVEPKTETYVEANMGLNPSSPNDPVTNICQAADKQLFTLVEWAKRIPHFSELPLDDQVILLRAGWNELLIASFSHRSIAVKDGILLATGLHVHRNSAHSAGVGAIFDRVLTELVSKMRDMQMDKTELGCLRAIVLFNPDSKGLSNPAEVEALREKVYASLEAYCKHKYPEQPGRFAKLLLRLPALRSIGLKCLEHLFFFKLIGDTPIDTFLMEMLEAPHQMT
CV-1 cells were seeded at a density of 2,000,000 cells in a T175 flask with DMEM+10% charcoal double-stripped FBS and incubated at 37° C. in 5% CO2 for 18 h (O/N).
After 18 h of incubation, the medium in the T175 flask was changed with fresh DMEM+10% charcoal super-stripped serum. In a polypropylene tube, 2500 μL OptiMEM (Life Technologies, Cat #31985-062) was combined with expression plasmids for hFXR, hRXR, TK-ECRE-luc and pCMX-YFP. The tube was then briefly vortexed and incubated at room temperature for 5 minutes. Transfection reagent (X-tremeGENE HP from Roche, Cat #06 366 236 001) was added to the OptiMEM/plasmid mixture vortexed and incubated at room temperature for 20 minutes. Following incubation, the transfection reagent/DNA mixture complex was added to cells in the T175 flask and the cells were incubated at 37° C. in 5% CO2 for 18 h (O/N).
Compounds were serially diluted in DMSO and added to transfected CV-1 cells. The cells were then incubated for 18 hrs. The next day cells were lysed and examined for luminescence.
Molecule `COc1ccc([C@H]2CC[C@H](CN(c3cccc(-n4cc(C)cn4)c3)C(=O)[C@H]3CC[C@H](O)CC3)CC2)cc1C` [Compound 1, trans-4-Hydroxy-N-((trans-4-(4-methoxy-3-methylphenyl)cyclohexyl)methyl)-N-(3-(4-methyl-1H-pyrazol-1-yl)phenyl)cyclohexanecarboxamide] showed an EC50 of 250 to 1000 nM. In the case of `CCn1cc(-c2cccc(N(C[C@H]3CC[C@H](c4ccc(OC)c(C#N)c4)CC3)C(=O)[C@H]3CC[C@H](O)CC3)c2)cn1` [Compound 2, trans-N-((trans-4-(3-Cyano-4-methoxyphenyl)cyclohexyl)methyl)-N-(3-(1-ethyl-1H-pyrazol-4-yl)phenyl)-4-hydroxycyclohexanecarboxamide] it was at most 250 nM; in that of `COc1ccc([C@H]2CC[C@H](CN(c3cccc(-c4cnn(C)c4)c3)C(=O)[C@H]3CC[C@H](O)CC3)CC2)cc1C` [Compound 2.01, trans-4-Hydroxy-N-((trans-4-(4-methoxy-3-methylphenyl)cyclohexyl)methyl)-N-(3-(1-methyl-1H-pyrazol-4-yl)phenyl)cyclohexanecarboxamide], at most 250 nM.

`CCn1cc(-c2cccc(N(C[C@H]3CC[C@H](c4ccc(OC)c(C)c4)CC3)C(=O)[C@H]3CC[C@H](O)CC3)c2)cn1` [Compound 2.02, trans-N-(3-(1-Ethyl-1H-pyrazol-4-yl)phenyl)-4-hydroxy-N-((trans-4-(4-methoxy-3-methylphenyl)cyclohexyl)methyl)cyclohexanecarboxamide] had a concentration giving a half-maximal response (EC50) of at most 250 nM. In the case of `COc1ccc([C@H]2CC[C@H](CN(c3cccc(-c4cnn(C(C)C)c4)c3)C(=O)[C@H]3CC[C@H](O)CC3)CC2)cc1C#N` [Compound 2.03, trans-N-((trans-4-(3-Cyano-4-methoxyphenyl)cyclohexyl)methyl)-4-hydroxy-N-(3-(1-isopropyl-1H-pyrazol-4-yl)phenyl)cyclohexanecarboxamide] it was at most 250 nM. In the case of `COc1ccc([C@H]2CC[C@H](CN(c3cccc(-c4cnn(C5CC5)c4)c3)C(=O)[C@H]3CC[C@H](O)CC3)CC2)cc1C#N` [Compound 2.04, trans-N-((trans-4-(3-Cyano-4-methoxyphenyl)cyclohexyl)methyl)-N-(3-(1-cyclopropyl-1H-pyrazol-4-yl)phenyl)-4-hydroxycyclohexanecarboxamide] it was at most 250 nM; in that of `COc1ccc([C@H]2CC[C@H](CN(c3cccc(-c4cnn(CC(F)F)c4)c3)C(=O)[C@H]3CC[C@H](O)CC3)CC2)cc1C` [Compound 2.05, trans-N-(3-(1-(2,2-Difluoroethyl)-1H-pyrazol-4-yl)phenyl)-4-hydroxy-N-((trans-4-(4-methoxy-3-methylphenyl)cyclohexyl)methyl)cyclohexanecarboxamide], at most 250 nM. With `COc1ccc([C@H]2CC[C@H](CN(c3cccc(-c4cnn(C(F)(F)F)c4)c3)C(=O)[C@H]3CC[C@H](O)CC3)CC2)cc1C` [Compound 2.06, trans-4-Hydroxy-N-((trans-4-(4-methoxy-3-methylphenyl)cyclohexyl)methyl)-N-(3-(1-(trifluoromethyl)-1H-pyrazol-4-yl)phenyl)cyclohexanecarboxamide], the EC50 was at most 250 nM. In the case of `COc1ccc([C@H]2CC[C@H](CN(c3cc(-c4cnn(C5CC5)c4)ccn3)C(=O)[C@H]3CC[C@H](O)CC3)CC2)cc1C` [Compound 2.07, trans-N-(4-(1-Cyclopropyl-1H-pyrazol-4-yl)pyridin-2-yl)-4-hydroxy-N-((trans-4-(4-methoxy-3-methylphenyl)cyclohexyl)methyl)cyclohexanecarboxamide] it was at most 250 nM; in that of `COc1ccc(C23CCC(CN(c4cc(-c5cnn(C6CC6)c5)ccn4)C(=O)[C@H]4CC[C@H](O)CC4)(CC2)CC3)cc1C` [Compound 2.08, trans-N-(4-(1-Cyclopropyl-1H-pyrazol-4-yl)pyridin-2-yl)-4-hydroxy-N-((4-(4-methoxy-3-methylphenyl)bicyclo[2.2.2]octan-1-yl)methyl)cyclohexanecarboxamide], at most 250 nM. The figure for `COc1ccc(C23CCC(CN(c4cc(-c5cnn(C(C)C)c5)ccn4)C(=O)[C@H]4CC[C@H](O)CC4)(CC2)CC3)cc1C` [Compound 2.09] is at most 250 nM; for `COc1ccc([C@H]2CC[C@H](CN(c3cccc(-c4cnn(C5CC5)c4)c3)C(=O)[C@H]3CC[C@H](O)CC3)CC2)cc1C` [Compound 3, trans-N-(3-(1-Cyclopropyl-1H-pyrazol-4-yl)phenyl)-4-hydroxy-N-((trans-4-(4-methoxy-3-methylphenyl)cyclohexyl)methyl)cyclohexanecarboxamide] it is at most 250 nM. On to `COc1ccc([C@H]2CC[C@H](CN(c3cccc(-c4ccn(C)n4)c3)C(=O)[C@H]3CC[C@H](O)CC3)CC2)cc1C` [Compound 3.01, trans-4-Hydroxy-N-((trans-4-(4-methoxy-3-methylphenyl)cyclohexyl)methyl)-N-(3-(1-methyl-1H-pyrazol-3-yl)phenyl)cyclohexanecarboxamide], for which the EC50 is at least 1000 nM. The figure for `COc1ccc([C@H]2CC[C@H](CN(c3cccc(-c4cnn(C(C)C)c4)c3)C(=O)[C@H]3CC[C@H](O)CC3)CC2)cc1C` [Compound 3.02, trans-4-Hydroxy-N-(3-(1-isopropyl-1H-pyrazol-4-yl)phenyl)-N-((trans-4-(4-methoxy-3-methylphenyl)cyclohexyl)methyl)cyclohexanecarboxamide] is at most 250 nM. The figure for `COc1ccc([C@H]2CC[C@H](CN(c3cccc(-c4cnn(CC(C)C)c4)c3)C(=O)[C@H]3CC[C@H](O)CC3)CC2)cc1C` [Compound 3.03, trans-4-Hydroxy-N-(3-(1-isobutyl-1H-pyrazol-4-yl)phenyl)-N-((trans-4-(4-methoxy-3-methylphenyl)cyclohexyl)methyl)cyclohexanecarboxamide] is at most 250 nM; for `CCCn1cc(-c2cccc(N(C[C@H]3CC[C@H](c4ccc(OC)c(C)c4)CC3)C(=O)[C@H]3CC[C@H](O)CC3)c2)cn1` [Compound 3.04, trans-4-Hydroxy-N-((trans-4-(4-methoxy-3-methylphenyl)cyclohexyl)methyl)-N-(3-(1-propyl-1H-pyrazol-4-yl)phenyl)cyclohexanecarboxamide] it is at most 250 nM; for `COc1ccc([C@H]2CC[C@H](CN(c3cccc(-c4cnn(CCO)c4)c3)C(=O)[C@H]3CC[C@H](O)CC3)CC2)cc1C` [Compound 3.05, trans-4-Hydroxy-N-(3-(1-(2-hydroxyethyl)-1H-pyrazol-4-yl)phenyl)-N-((trans-4-(4-methoxy-3-methylphenyl)cyclohexyl)methyl)cyclohexanecarboxamide] it is at least 1000 nM. The molecule `COc1ccc([C@H]2CC[C@H](CN(c3cccc(-c4cnn(CCN(C)C)c4)c3)C(=O)[C@H]3CC[C@H](O)CC3)CC2)cc1C` [Compound 3.06, trans-N-(3-(1-(2-(Dimethylamino)ethyl)-1H-pyrazol-4-yl)phenyl)-4-hydroxy-N-((trans-4-(4-methoxy-3-methylphenyl)cyclohexyl)methyl)cyclohexanecarboxamide] came in with an EC50 of at least 1000 nM. The figure for `COc1ccc([C@H]2CC[C@H](CN(c3cccc(-c4cnn(CC(F)(F)F)c4)c3)C(=O)[C@H]3CC[C@H](O)CC3)CC2)cc1C` [Compound 3.07, trans-4-Hydroxy-N-((trans-4-(4-methoxy-3-methylphenyl)cyclohexyl)methyl)-N-(3-(1-(2,2,2-trifluoroethyl)-1H-pyrazol-4-yl)phenyl)cyclohexanecarboxamide] is at most 250 nM.
